Reference: patent US8765779B2, “Tricyclic derivatives and their pharmaceutical use and compositions” (Cephalon, Inc., priority 2009, dated 2014)

target: T1, human 5-HT6 receptor (Homo sapiens, UniProt P50406); experiment: Human 5-HT6 Receptor Binding Assay ([3H]LSD displacement, scintillation beads); details: membranes of CHO-K1 cells with recombinant human 5-HT6, 4 nM [3H]LSD; Table 1, class symbols; read-out: h5-HT6 (Ki)
T1 construct: host or cells: CHO-K1 cells, stably transfected; membranes prepared in house
T1 sequence (P50406 whole entry): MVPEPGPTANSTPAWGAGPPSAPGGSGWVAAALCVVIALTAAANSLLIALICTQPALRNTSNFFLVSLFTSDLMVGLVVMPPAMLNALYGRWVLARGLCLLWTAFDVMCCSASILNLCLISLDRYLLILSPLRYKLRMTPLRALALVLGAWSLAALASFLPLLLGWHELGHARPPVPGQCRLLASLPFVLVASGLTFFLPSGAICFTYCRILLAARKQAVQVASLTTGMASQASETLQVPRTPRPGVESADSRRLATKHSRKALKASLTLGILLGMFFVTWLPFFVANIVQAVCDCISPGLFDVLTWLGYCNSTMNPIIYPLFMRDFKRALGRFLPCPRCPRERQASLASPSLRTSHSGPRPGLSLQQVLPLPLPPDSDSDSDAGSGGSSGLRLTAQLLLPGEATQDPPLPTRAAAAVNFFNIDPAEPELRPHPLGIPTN

Compound	Ki [nM]
CC12CCNCC1Oc1cc(S(=O)(=O)c3cccc4c3OC(F)(F)O4)ccc12 (stereo not shown) [Example 460]	< 500
O=S(=O)(c1cc(Cl)cc(Cl)c1)c1ccc2c(c1)OC1CNCCC21 (stereo not shown) [Example 155]	< 500
[O-][S+](c1cncc(Cl)c1)c1ccc2c(c1)OC1CNCCC21 (stereo not shown) [Example 391]	> 1000
COc1ccc(S(=O)(=O)c2ccc3c(c2)OC2CNCCC32)cc1 (stereo not shown) [Example 325]	500 to 1000
CC12CCNCC1Oc1ccc(OS(=O)(=O)c3ccc(-c4cnco4)cc3)cc12 (stereo not shown) [Example 777]	> 1000
O=S(=O)(c1ccc2c(c1)OCCO2)c1ccc2oc3c(c2c1)CCNC3 [Example 247]	< 500
Cn1cnc(COc2cccc(S(=O)(=O)c3ccc4c(c3)OC3CNCCC43)c2)n1 (stereo not shown) [Example 560]	> 1000
CC12CCNCC1Oc1ccc(OS(=O)(=O)c3cccc(Cl)c3)cc12 (stereo not shown) [Example 762]	> 1000
O=S(=O)(Oc1ccc2c(c1)C1CCNCC1O2)c1csc(C(F)(F)F)c1-c1ccccc1 (stereo not shown) [Example 747]	500 to 1000
Cc1cccc(S(=O)(=O)Oc2ccc3c(c2)C2CCNCC2O3)c1 (stereo not shown) [Example 699]	< 500
O=S(=O)(Oc1ccc2c(c1)C1CCNCC1O2)c1ccc(Cl)cc1 (stereo not shown) [Example 695]	> 1000
O=S(=O)(c1ccc2c(c1)OC1CNCCC21)c1cccnc1OCC(F)(F)F (stereo not shown) [Example 394]	< 500
CCN1CCC2c3ccc(OS(=O)(=O)c4ccc(Cl)cc4)cc3OC2C1 (stereo not shown) [Example 812]	> 1000
CCCCOc1cccc(S(=O)(=O)c2ccc3c(c2)OC2CNCCC32)c1 (stereo not shown) [Example 554]	< 500
COc1cc(OC(C)C)cc(S(=O)(=O)c2ccc3c(c2)OC2CNCCC32)c1 (stereo not shown) [Example 78]	< 500
CC(=O)NCCC1NCCc2c1oc1cc(S(=O)(=O)c3cccc(F)c3)ccc21 (racemic) [Example 536, N-(2-{7-[(3-fluorophenyl)sulfonyl]-1,2,3,4-tetrahydro[1]benzofuro[2,3-c]pyridin-1-yl}ethyl)acetamide]	< 500
COc1cc(S(=O)(=O)c2ccc3c4c(oc3c2)CNCC4(C)C)c[n+]([O-])c1 [Example 450]	> 1000
O=S(=O)(Nc1cccc(Cl)c1)c1ccc2c(c1)C1CCNCC1O2 (stereo not shown) [Example 853]	500 to 1000
CC1(C)NCCc2c1oc1cc(S(=O)(=O)c3ccc(F)c(Cl)c3)ccc21 [Example 18, 7-[(3-chloro-4-fluorophenyl)sulfonyl]-1,1-dimethyl-1,2,3,4-tetrahydro[1]benzofuro[2,3-c]pyridine]	< 500
O=S(=O)(c1ccccc1)c1ccc2c(c1)OC1CNCCC21 (stereo not shown) [Example 321, 7-(phenylsulfonyl)-1,2,3,4,4a,9a-hexahydro[1]benzofuro[2,3-c]pyridine]	< 500

Compound	Ki [nM]
Cc1c(Cl)cccc1S(=O)(=O)Oc1ccc2c(c1)OC1CNCCC21 (stereo not shown) [Example 658]	< 500
CC12CCNCC1Oc1ccc(OS(=O)(=O)Cc3ccccc3Cl)cc12 (stereo not shown) [Example 784]	< 500
O=S(=O)(c1ccc2c(c1)OC1CNCCC21)c1cc(F)cc(F)c1F (stereo not shown) [Example 386]	< 500
O=S(=O)(c1ccc2c(c1)C1CCNCC1O2)N1CCC2(CC1)OCc1ccccc12 (stereo not shown) [Example 862]	> 1000
CC(C)c1ccc(S(=O)(=O)c2ccc3c4c(oc3c2)CNCC4)cc1 [Example 195]	< 500
COc1ccc(S(=O)(=O)c2ccc3c(c2)OC2CNCCC32)cc1F (stereo not shown) [Example 129]	500 to 1000
O=S(=O)(Oc1ccc2c(c1)OC1CNCCC21)c1cc(Cl)cc(Cl)c1 (stereo not shown) [Example 677]	< 500
COCCN1CCc2c(oc3cc(S(=O)(=O)c4ccccc4)ccc23)C1 [Example 594]	< 500
O=S(=O)(c1cccc(OCC2CCCO2)c1)c1ccc2c(c1)OC1CNCCC21 (stereo not shown) [Example 577]	< 500
Nc1cccc(S(=O)(=O)c2ccc3c4c(oc3c2)CNCC4)c1 [Example 342]	< 500
O=S(=O)(c1ccc2c(c1)OC1CNCCC21)c1cccc(Cl)c1F (stereo not shown) [Example 409]	< 500
O=S(=O)(c1cc[n+]([O-])cc1)c1ccc2oc3c(c2c1)CCNC3 [Example 351]	> 1000
Cc1c(S(=O)(=O)Oc2ccc3c(c2)OC2CNCCC32)sc2ccc(Cl)cc12 (stereo not shown) [Example 687]	< 500
O=S(=O)(c1ccc(Cl)cc1)c1ccc2c(c1)C1CCNCC1O2 (stereo not shown) [Example 335]	> 1000
O=S(=O)(c1cccc(OCc2cccnc2)c1)c1ccc2c(c1)OC1CNCCC21 (stereo not shown) [Example 559]	< 500
O=S(=O)(Oc1ccc2c(c1)C1CCNCC1O2)c1csc2ccccc12 (stereo not shown) [Example 725]	< 500
O=S(=O)(Oc1ccc2c(c1)C1CCNCC1O2)c1ccc2ccccc2c1 (stereo not shown) [Example 721]	< 500
CC12CCNCC1Oc1ccc(OS(=O)(=O)c3cc4ccccc4s3)cc12 (stereo not shown) [Example 773]	< 500
CC1NCCc2c1oc1cc(S(=O)(=O)c3ccccc3)ccc21 (stereo not shown) [Example 235]	< 500
Nc1cccc(S(=O)(=O)c2ccc3oc4c(c3c2)CCNC4)c1 [Example 349]	< 500

Compound	Ki [nM]
O=S(=O)(c1ccc(Cl)cc1)c1ccc2oc3c(c2c1)CCNC3 [Example 250]	< 500
Cc1ccc(S(=O)(=O)c2ccc3oc4c(c3c2)CCNC4)cc1 [Example 252]	< 500
CN1CCC2c3ccc(S(=O)(=O)c4ccccc4)cc3OC2C1 (stereo not shown) [Example 607]	< 500
Cc1cccc(S(=O)(=O)c2ccc3c4c(oc3c2)CNCC4)c1 [Example 221]	< 500
O=S(=O)(Nc1ccc2c(c1)C1CCNCC1O2)c1cccc(Cl)c1 (stereo not shown) [Example 826]	< 500
O=S(=O)(c1cc(F)cc(F)c1)c1ccc2c3c(oc2c1)C1(CCOCC1)NCC3 [Example 301, 7-[(3,5-difluorophenyl)sulfonyl]-2′,3,3′,4,5′,6′-hexahydro-2H-spiro[1-benzofuro[2,3-c]pyridine-1,4′-pyran]]	< 500
COc1ccc(S(=O)(=O)c2ccc3c(c2)OC2CNCCC32)cc1 (stereo not shown) [Example 323]	> 1000
O=S(=O)(CCc1ccccc1)Oc1ccc2c(c1)OC1CNCCC21 (stereo not shown) [Example 691]	> 1000
O=S(=O)(c1ccc2c(c1)OC1CNCCC21)c1cccnc1C(F)(F)F (stereo not shown) [Example 410]	500 to 1000
O=S(=O)(Nc1cc(Cl)cc(Cl)c1)c1ccc2c(c1)C1CCNCC1O2 (stereo not shown) [Example 843]	> 1000
CN(Cc1ccccc1)S(=O)(=O)c1ccc2c(c1)C1CCNCC1O2 (stereo not shown) [Example 858]	> 1000
O=S(=O)(c1cccc(Cl)c1)c1ccc2c3c(oc2c1)C(C1CCOC1)NCC3 (stereo not shown) [Example 521]	< 500
Cc1ccc(S(=O)(=O)Oc2ccc3c(c2)C2CCNCC2O3)cc1 (stereo not shown) [Example 700]	< 500
CC(C)COc1cc(F)cc(S(=O)(=O)c2ccc3c(c2)OC2CNCCC32C)c1 (stereo not shown) [Example 424]	< 500
COc1ccc(S(=O)(=O)Oc2ccc3c(c2)C2CCNCC2O3)cc1 (stereo not shown) [Example 707]	500 to 1000
[O-][S+](c1ccc(Cl)c(C(F)(F)F)c1)c1ccc2c3c(oc2c1)CNCC3 (stereo not shown) [Example 209]	< 500
[O-][S+](c1ccc2c(c1)OC1CNCCC21)c1cccnc1Cl (stereo not shown) [Example 389]	> 1000
CC1OCCC12NCCc1c2oc2cc(S(=O)(=O)c3cccc(F)c3)ccc12 (single isomer, unassigned) [Example 59, 7-[(3-Fluorophenyl)sulfonyl]-2′-methyl-3,4,4′,5′-tetrahydro-2H-spiro[1-benzofuro[2,3-c]pyridine-1,3′-furan]]	< 500
